Measurements from US7351703B2, “Sulfonylamino carboxylic acid N-arylamides as guanylate cyclase activators” (Sanofi-Aventis Deutschland GmbH, priority 1999, dated 2008).
Values belong to the molecule of their own block, whether it stands above or below them.

Experiments:
[1] = molecular target: T1, soluble guanylate cyclase (sGC) (Bos taurus, UniProt P16068); test: Activation of soluble guanylate cyclase (cGMP enzyme immunoassay); format: biochemical; settings: sGC isolated from bovine lung, stimulation of basal enzyme activity vs solvent control
T1 construct: The sGC employed had been isolated from bovine lung; from tissue; host or cells: bovine lung
T1 sequence (P16068 1-619): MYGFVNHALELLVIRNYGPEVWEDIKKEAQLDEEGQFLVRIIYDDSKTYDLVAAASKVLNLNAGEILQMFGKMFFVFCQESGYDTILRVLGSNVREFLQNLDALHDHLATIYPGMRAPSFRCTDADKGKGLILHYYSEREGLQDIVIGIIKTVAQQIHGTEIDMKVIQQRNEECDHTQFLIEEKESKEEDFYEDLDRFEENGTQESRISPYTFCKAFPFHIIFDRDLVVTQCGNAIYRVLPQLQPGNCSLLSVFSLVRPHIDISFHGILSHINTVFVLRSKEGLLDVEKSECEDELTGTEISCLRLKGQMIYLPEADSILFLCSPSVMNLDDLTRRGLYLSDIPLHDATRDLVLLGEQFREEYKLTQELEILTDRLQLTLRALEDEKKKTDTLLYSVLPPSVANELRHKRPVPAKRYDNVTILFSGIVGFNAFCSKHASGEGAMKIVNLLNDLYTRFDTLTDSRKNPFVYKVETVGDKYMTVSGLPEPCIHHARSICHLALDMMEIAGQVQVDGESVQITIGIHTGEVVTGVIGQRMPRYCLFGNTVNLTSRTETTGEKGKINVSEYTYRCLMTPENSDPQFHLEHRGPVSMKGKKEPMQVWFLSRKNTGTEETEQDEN
T1 sequence (P19687 1-691 partner): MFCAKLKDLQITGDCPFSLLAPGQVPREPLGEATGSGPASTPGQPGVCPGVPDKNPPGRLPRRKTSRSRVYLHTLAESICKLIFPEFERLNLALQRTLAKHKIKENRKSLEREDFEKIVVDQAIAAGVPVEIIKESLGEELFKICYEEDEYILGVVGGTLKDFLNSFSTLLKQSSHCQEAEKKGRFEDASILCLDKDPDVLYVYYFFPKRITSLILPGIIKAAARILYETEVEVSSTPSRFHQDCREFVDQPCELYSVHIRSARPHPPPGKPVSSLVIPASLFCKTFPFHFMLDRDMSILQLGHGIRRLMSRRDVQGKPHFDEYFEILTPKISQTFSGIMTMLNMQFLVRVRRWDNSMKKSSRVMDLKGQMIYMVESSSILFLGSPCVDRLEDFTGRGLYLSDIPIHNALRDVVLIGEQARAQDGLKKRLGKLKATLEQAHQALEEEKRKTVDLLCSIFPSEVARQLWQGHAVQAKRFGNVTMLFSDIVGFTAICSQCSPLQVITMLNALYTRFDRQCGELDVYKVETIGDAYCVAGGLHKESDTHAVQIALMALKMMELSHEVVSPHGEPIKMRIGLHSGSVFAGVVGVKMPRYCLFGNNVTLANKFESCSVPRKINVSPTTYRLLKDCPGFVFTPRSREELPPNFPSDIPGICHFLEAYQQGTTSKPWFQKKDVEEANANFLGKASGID
Procedure: The activation of soluble guanylate cyclase (sGC), which catalyzes the conversion of guanosine triphosphate (GTP) to cyclic guanosine monophosphate (cGMP) and pyrophosphate, by the compounds according to the invention was quantified with the aid of an enzyme immunoassay (EIA) from Amersham. For this, the test substances were first incubated with sGC in microtiter plates and then the quantity of the resulting cGMP was determined.
The sGC employed had been isolated from bovine lung (see Methods in Enzymology, Volume 195, p. 377). The test solutions (100 μl per well) contained 50 mM triethanolamine (TEA) buffer (pH 7.5), 3 mM MgCl2, 3 mM reduced glutathione (GSH), 0.1 mM GTP, 1 mM 3-isobutyl-1-methylxanthine (IBMX), suitably diluted enzyme solution and the test substance or, in the control experiments, solvent. The test substances were dissolved in dimethyl sulfoxide (DMSO) and the solution was diluted with DMSO/water such that the final concentration c of test substance in the test batch had the value indicated below. The DMSO concentration in the test batch was 5% (v/v). The reaction was started by addition of the sGC. The reaction mix was incubated at 37° C. for 15 to 20 minutes and then stopped by ice-cooling and addition of the stop reagent (50 mM EDTA, pH 8.0). An aliquot of 50 μl was taken and employed for the determination of the cGMP content using the acetylation protocol of the Amersham cGMP EIA kit. The absorption of the samples was measured at 450 nm (reference wavelength 620 nm) in a microtiter plate reading apparatus. The cGMP concentration was determined by means of a calibration curve, which was obtained under the same experimental conditions. The activation of the sGC by a test substance is indicated as n-fold stimulation of the basal enzyme activity which was found in the control experiments (with solvent instead of test substance) (calculated according to the formula n-fold stimulation=[cGMP]test substance/[cGMP]control).

Molecule: O=C(Nc1cccc(C(F)(F)F)c1)c1ccccc1NS(=O)(=O)c1ccc(Cl)cc1 [Example 1, 2-(4-Chlorophenylsulfonylamino)-N-(3-trifluoromethylphenyl)benzamide]
n-fold stimulation ([1]; concentration c 100 μM): 3.6 n-fold | melting point: 169 °C

Molecule: O=C(Nc1cccc(C(F)(F)F)c1)c1cc(Br)ccc1NS(=O)(=O)c1ccc(Cl)cc1 [Example 2, 5-Bromo-2-(4-chlorophenylsulfonylamino)-N-(3-trifluoromethylphenyl)benzamide]
n-fold stimulation ([1]; concentration c 100 μM): 9.2 n-fold | melting point: 220 °C

Molecule: O=C(Nc1ccc2ccccc2c1)c1ccccc1NS(=O)(=O)c1ccc(Cl)cc1 [Example 3, 2-(4-Chlorophenylsulfonylamino)-N-(2-naphthyl)benzamide]
n-fold stimulation ([1]; concentration c 100 μM): 2 n-fold | melting point: 189 °C

Molecule: O=C(Nc1cccc(C(F)(F)F)c1)c1cc(Cl)ccc1NS(=O)(=O)c1ccc(Cl)cc1 [Example 4, 5-Chloro-2-(4-chlorophenylsulfonylamino)-N-(3-trifluoromethylphenyl)benzamide]
n-fold stimulation ([1]; concentration c 25 μM): 5.5 n-fold | melting point: 216 °C

Molecule: O=C(Nc1ccc(Oc2ccccc2)cc1)c1cc(Cl)ccc1NS(=O)(=O)c1ccc(Cl)cc1 [Example 5, 5-Chloro-2-(4-chlorophenylsulfonylamino)-N-(4-phenoxyphenyl)benzamide]
n-fold stimulation ([1]; concentration c 10 μM): 9.3 n-fold | melting point: 205 °C

Molecule: O=C(Nc1ccc(Oc2ccc(Cl)cc2)cc1)c1cc(Cl)ccc1NS(=O)(=O)c1ccc(Cl)cc1 [Example 6, 5-Chloro-2-(4-chlorophenylsulfonylamino)-N-(4-(4-chlorophenoxy)phenyl)benzamide]
n-fold stimulation ([1]; concentration c 100 μM): 4.2 n-fold | melting point: 207 °C

Molecule: O=C(Nc1ccc(Oc2ccccc2)cc1)c1ccccc1NS(=O)(=O)c1ccc(Cl)cc1 [Example 7, 2-(4-Chlorophenylsulfonylamino)-N-(4-phenoxyphenyl)benzamide]
n-fold stimulation ([1]; concentration c 100 μM): 2.8 n-fold | melting point: 143 °C

Molecule: O=C(Nc1ccc(Cl)c(Cl)c1)c1cc(Cl)ccc1NS(=O)(=O)c1ccc(Cl)cc1 [Example 8, 5-Chloro-2-(4-chlorophenylsulfonylamino)-N-(3,4-dichlorophenyl)benzamide]
n-fold stimulation ([1]; concentration c 10 μM): 5.3 n-fold

Molecule: COc1ccc(S(=O)(=O)Nc2ccc(Cl)cc2C(=O)Nc2ccc(F)cc2)cc1Cl [Example 17]
n-fold stimulation ([1]; concentration c 100 μM): 2 n-fold

Molecule: O=C(Nc1ccc(Oc2ccc(Cl)c3ccccc23)c(Cl)c1)c1cc(Cl)ccc1NS(=O)(=O)c1ccc(Cl)cc1 [Example 19, 5-Chloro-2-(4-chlorophenylsulfonylamino)-N-(3-chloro-4-(4-chloronaphthalene-1-yloxy)phenyl)benzamide]
n-fold stimulation ([1]; concentration c 100 μM): 26.3 n-fold

Molecule: O=C(Nc1ccc(Nc2ccccc2)cc1)c1cc(Cl)ccc1NS(=O)(=O)c1ccc(Cl)cc1 [Example 22, 5-Chloro-2-(4-chlorophenylsulfonylamino)-N-(4-(phenylamino)phenyl)benzamide]
melting point: 192.5 °C

Molecule: O=C(Nc1ccc(N2CCCC2=O)cc1)c1cc(Cl)ccc1NS(=O)(=O)c1ccccc1 [Example 25]
n-fold stimulation ([1]; concentration c 50 μM): 2.4 n-fold

Molecule: Cc1cncc(NC(=O)c2cc(Cl)ccc2NS(=O)(=O)c2ccc(Cl)cc2)n1 [Example 26, 5-Chloro-2-(4-chlorophenylsulfonylamino)-N-(5-methylpyrazin-3-yl)benzamide]
melting point: 248 °C

Molecule: O=C(Nc1cc(-c2cccs2)n[nH]1)c1cc(Cl)ccc1NS(=O)(=O)c1ccc(Cl)cc1 [Example 27, 5-Chloro-2-(4-chlorophenylsulfonylamino)-N-(3-(2-thienyl)pyrazol-5-yl)benzamide]
melting point: 117 °C

Second part, the molecule after the results:

n-fold stimulation ([1]; concentration c 50 μM): 6.1 n-fold
Molecule: 5-Chloro-2-(4-chlorophenylsulfonylamino)-N-(quinolinsyl)benzamide [Example 111]

melting point: 182.5 °C
Molecule: O=C(Nc1cc(C(F)(F)F)cc(C(F)(F)F)c1)c1cc(Cl)ccc1NS(=O)(=O)c1ccc(Cl)cc1 [Example 28, 5-Chloro-2-(4-chlorophenylsulfonylamino)-N-(3,5-bis-trifluoromethylphenyl)benzamide]

melting point: 164.5 °C
Molecule: COc1ccc(C(F)(F)F)cc1NC(=O)c1cc(Cl)ccc1NS(=O)(=O)c1ccc(Cl)cc1 [Example 29, 5-Chloro-2-(4-chlorophenylsulfonylamino)-N-(2-methoxy-5-trifluoromethylphenyl)benzamide]

melting point: 182 °C
Molecule: O=C(Nc1ccccc1C(F)(F)F)c1cc(Cl)ccc1NS(=O)(=O)c1ccc(Cl)cc1 [Example 30, 5-Chloro-2-(4-chlorophenylsulfonylamino)-N-(2-trifluoromethylphenyl)benzamide]

melting point: 163.5 °C
Molecule: COc1cccc(NC(=O)c2cc(Cl)ccc2NS(=O)(=O)c2ccc(Cl)cc2)c1 [Example 31, 5-Chloro-2-(4-chlorophenylsulfonylamino)-N-(3-methoxyphenyl)benzamide]

melting point: 74.5 °C
Molecule: COc1cc(NC(=O)c2cc(Cl)ccc2NS(=O)(=O)c2ccc(Cl)cc2)cc(OC)c1 [Example 32, 5-Chloro-2-(4-chlorophenylsulfonylamino)-N-(3,5-dimethoxyphenyl)benzamide]

n-fold stimulation ([1]; concentration c 50 μM): 3.8 n-fold
Molecule: O=C(Nc1ccc(C(=O)N2CCOCC2)cc1)c1cc(Cl)ccc1NS(=O)(=O)c1ccc(Cl)cc1 [Example 33, 5-Chloro-2-(4-chlorophenylsulfonylamino)-N-(4-(morpholine-4-carbonyl)phenyl)benzamide]

n-fold stimulation ([1]; concentration c 50 μM): 1.5 n-fold
Molecule: CCN(CC)Cc1cc(NC(=O)c2cc(Cl)ccc2NS(=O)(=O)c2ccc(Cl)cc2)ccc1O [Example 93, 5-Chloro-2-(4-chlorophenylsulfonylamino)-N-(3-diethylaminomethyl-4-hydroxyphenyl)benzamide]

n-fold stimulation ([1]; concentration c 12.5 μM): 4.9 n-fold
Molecule: N#CC(c1ccccc1)c1ccc(NC(=O)c2cc(Cl)ccc2NS(=O)(=O)c2ccc(Cl)cc2)cc1 (centres unmarked) [Example 97, 5-Chloro-2-(4-chlorophenylsulfonylamino)-N-(4-(cyanophenylmethyl)phenyl)benzamide]

n-fold stimulation ([1]; concentration c 50 μM): 1.7 n-fold
Molecule: O=C(O)CNC(=O)c1ccc(NC(=O)c2cc(Cl)ccc2NS(=O)(=O)c2ccc(Cl)cc2)cc1 [Example 102, (4-(5-Chloro-2-(4-chlorophenylsulfonylamino)benzoylamino)benzoylamino)acetic acid]

n-fold stimulation ([1]; concentration c 50 μM): 2.5 n-fold
Molecule: O=C(O)Cc1cccc(NC(=O)c2cc(Cl)ccc2NS(=O)(=O)c2ccc(Cl)cc2)c1 [Example 108, (3-(5-Chloro-2-(4-chlorophenylsulfonylamino)benzoylamino)phenyl)acetic acid]
